In patent US20240335442A1 (Eurofarma Laboratórios S.A., priority 2021, published 2024):

Assays:
[1] = biological target: human sodium channel Nav 1.7 (Homo sapiens (Human), UniProt Q15858); experiment: Automated whole-cell voltage-clamp (ScreenPatch 384P), Nav 1.7 sodium current, Protocol 2; assay type: cell-based; conditions: read-out: Nav1.7 IC50
Experimental: (§1) Biological assays were performed on Chinese hamster ovary (CHO) cells expressing the human sodium channels Nav 1.8 and Nav 1.7 stably.
(§2) The experimental voltage-clamp protocol using the whole cell configuration was established on the automated ScreenPatch® 384P platform (SP384PE, Nanion Technologies, Livingston, NJ) and recording of the results was performed with a Nanion 384-well Patch Clamp chip (NPC) (Nanion Technologies, Livingston, NJ).
(§3) Compounds of Formula (I), were diluted in eight concentrations in the extracellular solution composed of physiological saline, buffered with HEPES (mM): NaCl, 137; KCl, 4; CaCl2, 3.8; MgCl2, 1; HEPES, 10; Glucose, 10; pH 7.4. The […], 50; CsF, 90; MgCl2, 5; EGTA, 5; HEPES, 10; pH 7.2. The duration of exposure of each compound with the cells expressing Nav 1.7 or Nav 1.8 was at least five minutes and the assays were performed at room temperature.
(§4) The measurements of the sodium currents of Nav 1.8 and Nav 1.7 were obtained using the voltage protocols described below: • Protocol 1: A holding voltage of-90 mV was established followed by a voltage phase of 200 ms to-120 mV, followed by a voltage step of 10 mV for 1 second for Nav 1.8 or 0 mV for Nav 1.7, followed by a step of-100 mV for 20 ms, followed by a step of 20 ms for 10 mV for Nav 1.8 or 0 mV for Nav 1.7 (TP1A) before returning to the holding voltage of-90 mV. • Protocol 2: A holding voltage of-100 mV was established followed by an inactivation voltage step at −40 mV for 8 seconds, followed by a −100 mV step for 20 ms, followed by a 20 ms step for 10 mV for Nav 1.8 or 0 mV for Nav 1.7 (TP1A) before returning to the holding voltage of-100 mV.
(§5) Protocols were repeated at a frequency of 0.1 Hz (Protocol 1) or 0.05 Hz (Protocol 2) and current amplitude was quantified over the TP1A phase log. The variation in the peak amplitude of the current was evaluated according to the Formula described below, after exposure of the cells expressing the channels, at each concentration of the different compounds:
(§6) where ITP1A,basal, and ITP1A,molecule represent the entry peaks of sodium currents into TP1A prior to exposure to the compound and in the presence of the compound, respectively.
(§7) The decrease in peak current amplitude, after exposure of the cells to the compounds, was used to calculate the percent relative blocking of the channels relative to the positive control according to the Formula below: […]
(§8) where % V and % CP represent the averages of the values of current inhibition with a vehicle (DMSO) and positive controls, respectively. The sodium currents of the positive control were considered as 100%.
(§9) where [Test] represents the concentration of the evaluated molecule, IC50 is the concentration of the compound that generates half of the maximum inhibition, N is the Hill's coefficient and % Block′ is the percentage of the sodium channel current (Nav 1.8 and Nav 1.7) inhibited at each concentration of the evaluated molecule. Data were obtained by non linear least squares regression with XL fit for Excel (Microsoft, Redmond, WA).
(§10) Compounds were tested in at least one assay to obtain the IC50 value.

[2] = biological target: human sodium channel Nav 1.8 (Homo sapiens (Human), UniProt Q9Y5Y9); experiment: Automated whole-cell voltage-clamp (ScreenPatch 384P), Nav 1.8 sodium current, Protocol 2; assay type: cell-based; conditions: read-out: Nav1.8 IC50
Sequence of human sodium channel Nav 1.8 (Q9Y5Y9 whole entry): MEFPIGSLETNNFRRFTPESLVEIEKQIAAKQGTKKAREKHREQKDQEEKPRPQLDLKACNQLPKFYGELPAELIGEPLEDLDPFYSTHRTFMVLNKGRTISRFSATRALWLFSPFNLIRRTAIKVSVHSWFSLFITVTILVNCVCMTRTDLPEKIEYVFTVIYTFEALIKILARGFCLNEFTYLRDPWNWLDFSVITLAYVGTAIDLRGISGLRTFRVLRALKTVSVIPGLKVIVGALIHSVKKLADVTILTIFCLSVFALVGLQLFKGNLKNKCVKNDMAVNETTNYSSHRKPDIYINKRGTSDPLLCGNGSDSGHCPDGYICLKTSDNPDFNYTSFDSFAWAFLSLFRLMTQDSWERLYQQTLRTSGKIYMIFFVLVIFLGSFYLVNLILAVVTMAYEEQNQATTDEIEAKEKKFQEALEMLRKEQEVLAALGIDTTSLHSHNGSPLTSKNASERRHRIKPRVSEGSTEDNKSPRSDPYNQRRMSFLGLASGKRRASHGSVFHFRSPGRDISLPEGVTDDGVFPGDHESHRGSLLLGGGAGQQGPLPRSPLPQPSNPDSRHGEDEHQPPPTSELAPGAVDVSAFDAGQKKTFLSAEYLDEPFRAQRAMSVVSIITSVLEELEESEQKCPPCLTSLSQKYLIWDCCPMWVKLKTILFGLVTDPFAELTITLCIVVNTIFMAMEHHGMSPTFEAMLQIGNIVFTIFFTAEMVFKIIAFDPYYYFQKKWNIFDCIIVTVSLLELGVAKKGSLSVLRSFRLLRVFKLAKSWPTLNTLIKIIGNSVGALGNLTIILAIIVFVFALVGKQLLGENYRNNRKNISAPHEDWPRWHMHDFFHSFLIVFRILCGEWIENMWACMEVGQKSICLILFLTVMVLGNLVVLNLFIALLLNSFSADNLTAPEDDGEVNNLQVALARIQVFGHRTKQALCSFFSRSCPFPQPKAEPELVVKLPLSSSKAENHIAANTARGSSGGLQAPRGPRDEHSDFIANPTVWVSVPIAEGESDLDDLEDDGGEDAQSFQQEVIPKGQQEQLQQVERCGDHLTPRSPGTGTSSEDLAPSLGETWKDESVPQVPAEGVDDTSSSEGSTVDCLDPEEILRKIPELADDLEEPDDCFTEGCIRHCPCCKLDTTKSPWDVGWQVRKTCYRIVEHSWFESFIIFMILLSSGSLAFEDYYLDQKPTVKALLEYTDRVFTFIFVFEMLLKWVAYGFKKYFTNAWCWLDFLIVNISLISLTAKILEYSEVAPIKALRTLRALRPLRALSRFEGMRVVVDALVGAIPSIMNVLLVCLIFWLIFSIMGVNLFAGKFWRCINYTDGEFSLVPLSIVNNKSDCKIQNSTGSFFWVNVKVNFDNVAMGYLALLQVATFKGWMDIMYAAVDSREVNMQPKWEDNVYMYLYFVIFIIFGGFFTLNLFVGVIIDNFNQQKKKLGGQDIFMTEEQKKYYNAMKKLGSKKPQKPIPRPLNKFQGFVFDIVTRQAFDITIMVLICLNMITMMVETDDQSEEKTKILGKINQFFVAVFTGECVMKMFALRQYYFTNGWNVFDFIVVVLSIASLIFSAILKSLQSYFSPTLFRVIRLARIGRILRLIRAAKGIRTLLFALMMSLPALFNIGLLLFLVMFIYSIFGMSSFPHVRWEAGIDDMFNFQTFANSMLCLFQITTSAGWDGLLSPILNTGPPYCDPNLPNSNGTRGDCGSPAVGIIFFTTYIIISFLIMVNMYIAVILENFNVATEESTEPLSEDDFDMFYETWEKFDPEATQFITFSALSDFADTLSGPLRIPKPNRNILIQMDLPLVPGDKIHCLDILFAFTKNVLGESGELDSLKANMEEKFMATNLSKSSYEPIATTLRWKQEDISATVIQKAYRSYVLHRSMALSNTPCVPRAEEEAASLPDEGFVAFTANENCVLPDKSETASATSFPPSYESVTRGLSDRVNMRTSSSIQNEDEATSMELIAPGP
Experimental: as §1, §2, §3, §4, §5, §6, §7, §8, §9, §10

Sequence of human sodium channel Nav 1.7 (Q15858 whole entry): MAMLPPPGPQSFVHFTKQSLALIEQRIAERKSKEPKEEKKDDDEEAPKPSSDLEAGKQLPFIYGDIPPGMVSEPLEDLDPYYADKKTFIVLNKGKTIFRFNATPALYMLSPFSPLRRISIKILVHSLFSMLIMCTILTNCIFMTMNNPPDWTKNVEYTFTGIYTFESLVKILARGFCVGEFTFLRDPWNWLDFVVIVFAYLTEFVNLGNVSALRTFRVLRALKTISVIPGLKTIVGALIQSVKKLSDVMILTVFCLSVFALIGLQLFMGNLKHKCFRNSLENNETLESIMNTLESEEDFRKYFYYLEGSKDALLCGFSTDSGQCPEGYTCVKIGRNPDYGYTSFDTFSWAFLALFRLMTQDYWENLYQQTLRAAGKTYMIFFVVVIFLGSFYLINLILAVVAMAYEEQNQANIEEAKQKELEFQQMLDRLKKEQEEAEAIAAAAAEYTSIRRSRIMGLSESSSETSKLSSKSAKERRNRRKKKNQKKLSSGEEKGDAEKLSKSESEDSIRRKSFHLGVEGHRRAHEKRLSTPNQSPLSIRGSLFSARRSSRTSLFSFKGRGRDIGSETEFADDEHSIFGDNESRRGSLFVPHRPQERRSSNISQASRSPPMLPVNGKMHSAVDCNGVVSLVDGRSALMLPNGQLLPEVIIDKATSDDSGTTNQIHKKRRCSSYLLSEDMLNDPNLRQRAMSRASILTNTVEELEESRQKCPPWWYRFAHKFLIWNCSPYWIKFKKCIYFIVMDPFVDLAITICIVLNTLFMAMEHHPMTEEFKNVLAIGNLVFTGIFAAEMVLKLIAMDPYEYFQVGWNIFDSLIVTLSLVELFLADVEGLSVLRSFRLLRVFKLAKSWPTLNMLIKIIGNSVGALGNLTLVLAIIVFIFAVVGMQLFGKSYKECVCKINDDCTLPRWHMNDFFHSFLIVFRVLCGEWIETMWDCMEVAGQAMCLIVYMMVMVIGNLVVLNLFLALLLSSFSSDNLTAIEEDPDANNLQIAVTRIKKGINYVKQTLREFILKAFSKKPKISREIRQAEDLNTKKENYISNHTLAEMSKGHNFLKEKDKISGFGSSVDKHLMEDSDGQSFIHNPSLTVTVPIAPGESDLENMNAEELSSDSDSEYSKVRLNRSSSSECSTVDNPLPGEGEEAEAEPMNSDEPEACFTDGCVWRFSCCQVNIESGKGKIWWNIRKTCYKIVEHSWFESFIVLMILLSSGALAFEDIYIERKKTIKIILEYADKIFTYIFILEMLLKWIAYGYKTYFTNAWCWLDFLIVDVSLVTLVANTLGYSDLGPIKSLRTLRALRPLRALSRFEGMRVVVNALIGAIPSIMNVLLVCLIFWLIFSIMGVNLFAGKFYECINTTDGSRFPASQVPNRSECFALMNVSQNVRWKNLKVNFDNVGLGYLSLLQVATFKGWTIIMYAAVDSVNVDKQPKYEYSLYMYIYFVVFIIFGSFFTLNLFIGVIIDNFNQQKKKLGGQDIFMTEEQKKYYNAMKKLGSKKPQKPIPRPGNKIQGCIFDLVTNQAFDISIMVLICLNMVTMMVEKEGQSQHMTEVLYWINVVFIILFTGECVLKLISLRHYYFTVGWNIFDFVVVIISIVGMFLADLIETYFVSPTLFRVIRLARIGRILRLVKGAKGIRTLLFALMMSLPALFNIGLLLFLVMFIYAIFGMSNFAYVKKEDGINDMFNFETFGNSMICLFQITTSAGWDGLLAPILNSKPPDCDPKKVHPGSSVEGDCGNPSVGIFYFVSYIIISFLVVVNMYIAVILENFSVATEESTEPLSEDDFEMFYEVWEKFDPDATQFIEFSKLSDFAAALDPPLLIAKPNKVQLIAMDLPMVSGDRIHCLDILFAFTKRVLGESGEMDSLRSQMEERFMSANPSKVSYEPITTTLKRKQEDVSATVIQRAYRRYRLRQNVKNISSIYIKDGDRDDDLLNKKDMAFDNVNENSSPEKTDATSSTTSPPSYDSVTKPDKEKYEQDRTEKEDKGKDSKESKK

SMILES | IC50 [1] [nM] | IC50 [2] [nM]
COc1cc(/C=N/NC(=O)c2cncc(-c3ccc(OCC(C)C)cc3Cl)n2)cc(OC)c1 [Compound 159, (E)-6-(2-chloro-4-isobutoxyphenyl)-N′-(3,5-dimethoxybenzylidene)pyrazine-2-carbohydrazide] | 217 | 293
COc1cc(/C=N/NC(=O)c2cnc(C)cn2)cc(OC)c1 [Compound 138, (E)-N′-(3,5-dimethoxybenzylidene)-5-methylpyrazine-2-carbohydrazide] | > 10000 | > 1000
COc1ccc(-c2cncc(C(=O)N/N=C/c3ccccc3)n2)cc1 [Compound 178, (E)-N′-benzylidene-6-(4-methoxyphenyl)pyrazine-2-carbohydrazide] | 3190 | 358
COc1ccc(-c2cncc(C(=O)N/N=C/c3ccc(OC)cc3OC)n2)cc1 [Compound 78, (E)-N′-(2,4-dimethoxybenzylidene)-6-(4-methoxyphenyl)pyrazine-2-carbohyrazide] | 7150 | 841
CCOc1ccc(-c2cncc(C(=O)N/N=C/c3cc(OC)c(F)c(OC)c3)n2)c(OC)c1 [Compound 107, (E)-6-(4-ethoxy-2-methoxyphenyl)-N′-(4-fluoro-3,5-dimethoxybenzylidene)pyrazine-2-carbohydrazide] | 5160 | 1000
CCOc1ccc(-c2cncc(C(=O)N/N=C/c3cc(OC)cc(OC)c3)n2)cc1Cl [Compound 117, (E)-6-(3-chloro-4-ethoxyphenyl)-N′-(3,5-dimethoxybenzylidene)pyrazine-2-carbohydrazide] | 737 | 238
CCOc1ccc(-c2cnc(CC)c(C(=O)N/N=C/c3cc(OC)cc(OC)c3)n2)cc1 [Compound 144, (E)-N′-(3,5-dimethoxybenzylidene)-6-(4-ethoxyphenyl)-3-ethylpyrazine-2-carbohydrazide] | > 300 | > 300
CCc1cnc(C(=O)N/N=C/c2cc(OC)cc(OC)c2)cn1 [Compound 167, (E)-N′-(3,5-dimethoxybenzylidene)-5-ethylpyrazine-2-carbohydrazide] | > 10000 | > 1000
COc1cc(/C=N/NC(=O)c2cnc(OC)cn2)cc(OC)c1 [Compound 142, (E)-N′-(3,5-dimethoxybenzylidene)-5-methoxypyrazine-2-carbohydrazide] | > 10000 | > 1000
CC(C)Oc1ccc(-c2cncc(C(=O)N/N=C/C3CCCCC3)n2)cc1 [Compound 175, (E)-N′-(cyclohexylmethylene)-6-(4-isopropoxyphenyl)pyrazine-2-carbohydrazide] | 110 | 361
COc1ccc(-c2cncc(C(=O)N/N=C/c3ccc(F)cc3)n2)cc1 [Compound 60, (E)-N′-(4-fluorobenzylidene)-6-(4-methoxyphenyl)pyrazine-2-carbohydrazide] | 5190 | 340
COc1ccc(-c2cncc(C(=O)N(C)/N=C/c3cc(OC)cc(OC)c3)n2)cc1 [Compound 168, (E)-N′-(3,5-dimethoxybenzylidene)-6-(4-methoxyphenyl)-N-methylpyrazine-2-carbohydrazide] | > 10000 | > 1000
CCOc1ccc(-c2cncc(C(=O)N/N=C/c3cccc(OC)c3)n2)c(Cl)c1 [Compound 111, (E)-6-(2-chloro-4-ethoxyphenyl)-N′-(3-methoxybenzylidene)pyrazine-2-carbohydrazide] | 541 | 119
COc1cc(/C=N/NC(=O)c2cncc(-c3ccc(OCC(C)C)cc3)n2)cc(OC)c1 [Compound 85, (E)-N′-(3,5-dimethoxybenzylidene)-6-(4-isobutoxyphenyl)pyrazine-2-carbohydrazide] | 159 | 31.8

The next lines start with the values.

IC50 [1] [nM] | IC50 [2] [nM] | SMILES
2650 | 129 | COc1ccc(-c2cncc(C(=O)N/N=C/C3=C(C)CCCCC3)n2)cc1 [Compound 200]
63.1 | 51.3 | COc1cc(/C=N/NC(=O)c2cncc(-c3ccc(OC(C)C)cc3)n2)cc(OC)c1 [Compound 29, (E)-N′-(3,5-dimethoxybenzylidene)-6-(4-isopropoxyphenyl)pyrazine-2-carbohydrazide]
> 10000 | > 1000 | CCOc1ccc(-c2nc(C(=O)N/N=C/c3cc(OC)cc(OC)c3)cnc2OCC)cc1 [Compound 212, (E)-N′-(3,5-dimethoxybenzylidene)-5-ethoxy-6-(4-ethoxyphenyl)pyrazine-2-carbohydrazide]
> 10000 | > 1000 | COc1cc(/C=N/NC(=O)c2cncc(-c3cccc(Cl)c3)n2)cc(OC)c1 [Compound 93, (E)-6-(3-chlorophenyl)-N′-(3,5-dimethoxybenzylidene)pyrazine-2-carbohydrazide]
6410 | 320 | COc1ccc(-c2cncc(C(=O)N/N=C/C3CCCCCC3)n2)cc1 [Compound 181, (E)-N′-(cycloheptylmethylene)-6-(4-methoxyphenyl)pyrazine-2-carbohydrazide]
> 10000 | > 1000 | COc1ccc(Oc2cnc(C(=O)N/N=C/c3cc(OC)cc(OC)c3)cn2)cc1 [Compound 130]
83 | 90.2 | CCCOc1cc(/C=N/NC(=O)c2cncc(-c3ccc(OCC)cc3OC)n2)cc(OC)c1 [Compound 106, (E)-6-(4-ethoxy-2-methoxyphenyl)-N′-(3-methoxy-5-propoxybenzylidene)pyrazine-2-carbohydrazide]
> 10000 | > 1000 | COc1ccc(-c2cnc(C(=O)N/N=C/c3cc(OC)cc(OC)c3)cn2)cc1 [Compound 91, (E)-N′-(3,5-dimethoxybenzylidene)-5-(4-methoxyphenyl)pyrazine-2-carbohydrazide]
> 10000 | > 1000 | COc1cc(/C=N/NC(=O)c2cncc(N3CCC(F)(F)C(C)C3)n2)cc(OC)c1 (stereo not drawn) [Compound 169, (E)-6-(4,4-difluoro-3-methylpiperidin-1-yl)-N′-(3,5-dimethoxybenzylidene)pyrazine-2-carbohydrazide]
219 | 496 | CCOc1ccc(-c2cncc(C(=O)N/N=C/c3cc(OC)cc(OC)c3)n2)c(C(F)(F)F)c1 [Compound 187]
> 10000 | > 1000 | COc1cc(/C=N/NC(=O)c2cncc(-c3cccnc3)n2)cc(OC)c1 [Compound 104, (E)-N′-(3,5-dimethoxybenzylidene)-6-(pyridin-3-yl)pyrazine-2-carbohydrazide]
> 10000 | 128 | CCOc1ccc(-c2cncc(C(=O)N/N=C/c3cccc(OC)c3)n2)c(F)c1 [Compound 119, (E)-6-(4-ethoxy-2-fluorophenyl)-N′-(3-methoxybenzylidene)pyrazine-2-carbohydrazide]
> 10000 | > 1000 | CCOc1ccc(-c2cncc(C(=O)N/N=C/c3ccc(C(=O)NS(C)(=O)=O)cc3)n2)cc1 [Compound 188, (E)-4-((2-(6-(4-ethoxyphenyl)pyrazine-2-carbonyl)hydrazinalidene)methyl)-N-(methylsulfonyl)benzamide]
228 | 13.3 | CCOc1ccc(-c2cncc(C(=O)N/N=C/c3cc(OC)ccc3F)n2)cc1 [Compound 20, (E)-6-(4-ethoxyphenyl)-N′-(2-fluoro-5-methoxybenzylidene)pyrazine-2-carbohydrazide]
121 | 118 | Cc1cc(C)cc(/C=N/NC(=O)c2cncc(-c3ccc(OC4CCCC4)cc3)n2)c1 [Compound 150, (E)-6-(4-(cyclopentyloxy)phenyl)-N′-(3,5-dimethylbenzylidene)pyrazine-2-carbohydrazide]
44.6 | 33.7 | CCOc1ccc(-c2cncc(C(=O)N/N=C/c3cc(F)cc(OC)c3)n2)c(OC)c1 [Compound 105, (E)-6-(4-ethoxy-2-methoxypehnyl)-N′-(3-fluoro-5-methoxybenzylidene)pyrazine-2-carbohydrazide]
